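96-well plates; 48 h exposure; 5 concentrations. Endpoints by linear interpolation between flanking doses. Not reached: highest tested concentration assigned. The concentration for 50% growth inhibition is given as GI50.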 Calls of active or inactive are those of the source. No stated cut-off is given here; in the data, active = GI50 up to about 1.1 µM and inactive = higher.

We go through twelve compounds from ChEMBL document CHEMBL1201862, “PubChem BioAssay data set” (2004).

Some test systems named below: OVCAR-8; NCI-H23; K562; OVCAR-5; A549; SW-620; KM-20L2; 786-0; LOX IMVI; RPMI-8226; SN12C; HOP-62; M19-MEL; COLO 205; SK-MEL-2; EKVX; HOP-92; DU-145; MDA-N; BT-549.
What all share (test): inhibition of tumour cell growth, NCI panel, 48 h

For `COC(=O)C(C(=O)C(=O)Nc1ccc(C(F)(F)F)cc1[N+](=O)[O-])c1csc(-n2nc(-c3ccccc3)cc2-c2ccccc2)n1` (stereo not given), the GI50 in the assay on OVCAR-8, in the assay with NCI-H23, in the assay on K562, in the assay with OVCAR-5, in the assay with A549 and with SW-620 was > 100 µM (inactive) in each case. Also, the GI50 with KM-20L2, with 786-0, with LOX IMVI, in the assay with RPMI-8226, with SN12C and with HOP-62 was > 100 µM (inactive) in each case. In addition, the GI50 in the assay on M19-MEL, with COLO 205 and with SK-MEL-2 was > 100 µM (inactive) in each case.

As for `N#CC1=C(c2ccccc2)OC2(N)OC(c3ccccc3)=C(C#N)C12C#N` (stereo not given), the GI50 in the assay with OVCAR-8 is 74.8 µM (inactive); in the assay with EKVX, > 100 µM (inactive); with NCI-H23, > 100 µM (inactive); in the assay with K562 it was > 100 µM (inactive); in the assay on OVCAR-5, > 100 µM (inactive); in the assay with A549, > 100 µM (inactive). The GI50 in the assay on SW-620 was > 100 µM (inactive); in the assay on KM-20L2, > 100 µM (inactive); with 786-0 it was > 100 µM (inactive); in the assay with LOX IMVI, > 100 µM (inactive); in the assay on RPMI-8226, 39.4 µM (inactive); in the assay with SN12C, > 100 µM (inactive). For the same compound, the GI50 with HOP-62, in the assay on M19-MEL, in the assay with COLO 205 and in the assay with SK-MEL-2 was > 100 µM (inactive) each time.

As to `CCCC(S(=O)(=O)c1ccccc1)S(=O)(=O)c1ccccc1`, the GI50 in the assay on OVCAR-8, in the assay with EKVX, in the assay with NCI-H23, in the assay on K562, in the assay on OVCAR-5 and with A549 was > 100 µM (inactive) each time. The GI50 with SW-620, in the assay on KM-20L2, in the assay on 786-0, in the assay on RPMI-8226, in the assay with HOP-62 and in the assay with M19-MEL was > 100 µM (inactive) in each case. Besides, the GI50 in the assay on SK-MEL-2 was > 100 µM (inactive).

`CCOC(=O)[C@H]1Nc2ccc(O)cc2C2c3ccccc3CC21` (stereo not given in full): the GI50 is > 100 µM (inactive) in the assay with OVCAR-8; 42.3 µM (inactive) in the assay on EKVX; 53.7 µM (inactive) in the assay with NCI-H23; 52.5 µM (inactive) with K562; > 100 µM (inactive) in the assay on OVCAR-5; 65.3 µM (inactive) in the assay with A549. In addition, the GI50 was > 100 µM (inactive) in the assay with SW-620; > 100 µM (inactive) in the assay with KM-20L2; 77.8 µM (inactive) in the assay with 786-0; 81.3 µM (inactive) in the assay on LOX IMVI; 43.2 µM (inactive) with RPMI-8226; 87.1 µM (inactive) in the assay on SN12C. For the same compound, the GI50 with HOP-62 is > 100 µM (inactive); in the assay on M19-MEL, 55.1 µM (inactive); in the assay on COLO 205, > 100 µM (inactive); in the assay on SK-MEL-2, > 100 µM (inactive).

`COc1nc2c(c(O)c(C)c(=O)n2OC2OCC(OC(C)=O)C(OC(C)=O)C2OC(C)=O)c(=O)n1C` (stereo not given): the GI50 in the assay with OVCAR-8, with EKVX, in the assay on NCI-H23, in the assay on K562, with OVCAR-5 and in the assay on A549 was > 100 µM (inactive) each time. For the same compound, the GI50 in the assay on SW-620, in the assay on KM-20L2, in the assay on 786-0, with LOX IMVI, with SN12C and in the assay with HOP-62 was > 100 µM (inactive) in each case. Moreover, the GI50 in the assay on M19-MEL, with COLO 205 and in the assay on SK-MEL-2 was > 100 µM (inactive) each time.

Take `C[Si](C)(c1ccccc1)C1CC(=O)CC(=O)C1`: the GI50 with OVCAR-8, with EKVX, in the assay with NCI-H23, in the assay on K562, in the assay on OVCAR-5 and in the assay with A549 was > 100 µM (inactive) throughout. Also, the GI50 in the assay with SW-620 is > 100 µM (inactive); in the assay on KM-20L2, > 100 µM (inactive); in the assay with 786-0, 21.4 µM (inactive); with LOX IMVI, 20.8 µM (inactive); in the assay on RPMI-8226, > 100 µM (inactive); with SN12C, > 100 µM (inactive). In addition, the GI50 with HOP-62, in the assay on M19-MEL, in the assay on COLO 205 and in the assay on SK-MEL-2 was > 100 µM (inactive) each time.

Turning to `O=c1[nH]cc(F)c(=O)n1C1OC(CO)C(O)C1O` (stereo not given), the GI50 in the assay on OVCAR-8, in the assay on EKVX, in the assay on NCI-H23, in the assay on K562, with OVCAR-5 and in the assay with HOP-92 was > 100 µM (inactive) in each case. Besides, the GI50 in the assay with A549, with SW-620, with KM-20L2, with 786-0, in the assay on LOX IMVI and with RPMI-8226 was > 100 µM (inactive) each time. The GI50 with SN12C, in the assay on HOP-62, in the assay with COLO 205 and in the assay with SK-MEL-2 was > 100 µM (inactive) each time.

Take `N#CCC1(c2ccc(Cl)cc2)NC(=O)c2ccccc21` (stereo not given): the GI50 in the assay on DU-145, in the assay with OVCAR-8, in the assay on EKVX, with NCI-H23, with K562 and in the assay with OVCAR-5 was > 100 µM (inactive) each time. For the same compound, the GI50 in the assay on HOP-92, with A549, in the assay with SW-620, in the assay with 786-0, with LOX IMVI and in the assay on RPMI-8226 was > 100 µM (inactive) each time. The GI50 in the assay with SN12C, with HOP-62, in the assay with COLO 205, in the assay with MDA-N, in the assay with BT-549 and with SK-MEL-2 was > 100 µM (inactive) throughout.

As to `CCOc1ccc2c(c1)[n+]([O-])c(C(N)=O)c(N)[n+]2[O-]`, the GI50 with OVCAR-8, in the assay on EKVX, in the assay with NCI-H23, with K562, with OVCAR-5 and in the assay with HOP-92 was > 100 µM (inactive) throughout. The GI50 with A549, in the assay with SW-620, with KM-20L2, with 786-0, in the assay on SN12C and in the assay with HOP-62 was > 100 µM (inactive) in each case. Besides, the GI50 in the assay on M19-MEL, with COLO 205 and with SK-MEL-2 was > 100 µM (inactive) each time.

For the compound `Cc1nc(N)sc1/N=N/c1ccccc1Br`, the GI50 in the assay with DU-145 was 34.7 µM (inactive); in the assay with OVCAR-8, > 54.3 µM (inactive); in the assay with EKVX, 18.3 µM (inactive); in the assay on NCI-H23, 28.2 µM (inactive); with K562, > 65.9 µM (inactive); with OVCAR-5, 41.6 µM (inactive). In addition, the GI50 with HOP-92 was 18 µM (inactive); in the assay with A549 it was > 53.7 µM (inactive); in the assay with SW-620 it was > 53.1 µM (inactive); in the assay on 786-0 it was 36.6 µM (inactive); in the assay on LOX IMVI, > 48.9 µM (inactive); in the assay on RPMI-8226, 65.3 µM (inactive). Moreover, the GI50 in the assay on SN12C is 34.8 µM (inactive); in the assay on HOP-62, 39.3 µM (inactive); in the assay with COLO 205, > 54.7 µM (inactive); with MDA-N, 27.9 µM (inactive); in the assay on BT-549, 24.7 µM (inactive); in the assay with SK-MEL-2 it was 34 µM (inactive).

On to `Cn1c2ccccc2c(=O)c2c(O)cc3c(c21)CC(C1(C)CO1)O3` (stereo not given), for which the GI50 was 10.7 µM (inactive) in the assay on DU-145; 0.966 µM (active) with OVCAR-8; 3.08 µM (inactive) in the assay with EKVX; 2.02 µM (inactive) in the assay on NCI-H23; 0.26 µM (active) in the assay with K562; 6.53 µM (inactive) in the assay on OVCAR-5. In addition, the GI50 was 9.08 µM (inactive) in the assay with HOP-92; 5.16 µM (inactive) with A549; 1.17 µM (inactive) in the assay with SW-620; 4.66 µM (inactive) in the assay with KM-20L2; 1.71 µM (inactive) with 786-0; < 0.0111 µM (active) in the assay on LOX IMVI. Besides, the GI50 in the assay on RPMI-8226 was 2.82 µM (inactive); in the assay on SN12C, 1.42 µM (inactive); in the assay with HOP-62, 3.15 µM (inactive); in the assay on COLO 205, 6.1 µM (inactive); in the assay on MDA-N it was 1.38 µM (inactive); with BT-549 it was 1.67 µM (inactive). Also, the GI50 in the assay with SK-MEL-2 is 0.887 µM (active).

In the case of `O=C1c2cccc(O)c2C(=O)c2c(OC3OC(CO)C(O)C(O)C3O)cccc21` (stereo not given), the GI50 is 32.2 µM (inactive) with DU-145; 31.8 µM (inactive) with OVCAR-8; 32.7 µM (inactive) in the assay with EKVX; 15.3 µM (inactive) in the assay with NCI-H23; 48 µM (inactive) in the assay on K562; 51.6 µM (inactive) in the assay on OVCAR-5. Moreover, the GI50 was 73.8 µM (inactive) with HOP-92; 27.3 µM (inactive) in the assay on A549; 16.9 µM (inactive) with SW-620; 22.2 µM (inactive) in the assay on 786-0; 37.5 µM (inactive) with LOX IMVI; 23.9 µM (inactive) in the assay with RPMI-8226. For the same compound, the GI50 with SN12C is 24.7 µM (inactive); in the assay with HOP-62, 46.3 µM (inactive); in the assay with COLO 205, 19.4 µM (inactive); in the assay with MDA-N, 28.6 µM (inactive); in the assay with BT-549, 21.8 µM (inactive); with SK-MEL-2, 46.8 µM (inactive).
